Test [1] deals with SK-BR-3 tumor cells (human breast cancer cells). As to the kind of experiment: In vitro inhibition of compound of formula (D) on tumor cell proliferation (CTG), SK-BR-3. It counts as cell-based. The following applies: read-out: IC50 of in vitro inhibition on the proliferation of SK-BR-3 cells. As for the experimental part: (§1) The purpose of this test is to test the in vitro inhibition effect of the drug compound of formula (D) of the present invention on the proliferation of U87MG cells (Chinese Academy of Sciences cell bank, Catalog #TCHu138) and SK-BR-3 tumor cells (human breast cancer cells, ATCC, article number HTB-30). The cells were treated with different concentrations of the compound in vitro. After 6 days of cultivation, the cell proliferation was determined by CTG reagent (CellTiter-Glo® Luminescent Cell Viability Assay, Promega, article number: G7573), and the in vitro activity of the compound was evaluated according to the IC50 value.
The test method for in vitro proliferation inhibition test of the present compounds on tumor cells is described below by taking in vitro proliferation inhibition test method onU87MG cells as an example. This method is also applicable to, but not limited to, the in vitro proliferation inhibition tests on other tumor cells. • 1. Cell cultivation: U87MG cells and SK-BR-3 cells were cultured in EMEM medium containing 10% FBS (GE, article number SH30024.01) and McCoy's 5A medium containing 10% FBS (Gibco, article number 16600-108), respectively. • 2. Cell preparation: U87MG cells and SK-BR-3 cells in logarithmic growth phase were washed with PBS (phosphate buffer, Shanghai Basal Media Technologies Co., Ltd.) once, and then added with 2-3 ml of trypsin (0.25% Trypsin-EDTA (1×), Gibico, Life Technologies) to digest for 2-3 min. 10-15 ml of cell culture medium was added after the cells were completely digested. The digested cells were eluted, and centrifuged at 1000 rpm for 5 min. The supernatant was discarded, and 10-20 ml of cell culture medium was added to resuspend the cells to obtain a single-cell suspension. • 3. Cell plating: the U87MG and SK-BR-3 single-cell suspensions were mixed well, and the cell densities were adjusted to 2.75×10^3 cells/ml and 8.25×10^3 cells/ml with the cell culture medium respectively. The density-adjusted cell suspension was mixed well, and added to a 96-well cell culture plate at 180 μl/well. 200 μl of culture medium was added to the peripheral wells of the 96-well plate. The plate was incubated in an incubator for 24 hours (37° C., 5% CO2). • 4. Compound formulation: the compound was dissolved with DMSO (dimethylsulfoxide, Shanghai Titan Technology Co., Ltd.) to obtain a stock solution with an initial concentration of 10 mM.
The initial concentration of the small molecule compound was 500 nM, and the formulating method is as follows.
30 μl of different test samples were respectively added into the first column of the 96-well U-shaped bottom formulating plate with a sample concentration of 100 µM. 20 µl of DMSO was added to each well from the second column to the 11th column. […]

The subject of test [2] is trastuzumab (Herceptin) resistant human breast cancer cell strain JIMT-1 transplanted tumor. As to the kind of experiment: Efficacy evaluation in JIMT-1 tumor-bearing mice. It counts as in vivo, Nunu nude mice. The note with it: 10 mg/kg, intraperitoneal injection 2 times, Day 34.
From the text: Formulation method: the drugs were all diluted and formulated with PBS. • 3. Test animals • Nunu nude mice, purchased from Beijing Vital River Laboratory Animal Technology Co., Ltd.
JIMT-1 cells (Nanjing Cobioer Biosciences Co., Ltd.) (5×10^6 cells/mouse, having 50% matrigel) were inoculated subcutaneously in the right rib of mouse. After the tumor grew for 8 days and reached 203.09±11.94 mm^3, the animals were randomly grouped into 6 groups with 8 animals per group (d1).
The drugs were administered by intraperitoneal injection for a total of 2 times. The tumor volume and body weight were measured twice a week, and the data were recorded.
Excel 2003 statistical software was used for data statistics: mean value was calculated as avg; SD value was calculated as STDEV; SEM value was calculated as STDEV/SQRT; P value between different groups was calculated as TTEST.
[formula] [formula] [formula] • wherein V0 and VT represent the tumor volume at the beginning of the test and at the end of the test, respectively. CRTV and TRTV represent the relative tumor volume of the blank control group (Vehicle, PBS) and the test group at the end of the test, respectively.
In another test the test system is U87MG cells. As to the kind of experiment: In vitro inhibition of compound of formula (D) on tumor cell proliferation (CTG), U87MG. It counts as cell-based. The note with it: Homo sapiens, U-87 MG, 144 h, read-out: IC50 of in vitro inhibition on the proliferation of U87 cells. As for the experimental part: as §1
The test method for in vitro proliferation inhibition test of the present compounds on tumor cells is described below by taking in vitro proliferation inhibition test method onU87MG cells as an example. This method is also applicable to, but not limited to, the in vitro proliferation inhibition tests on other tumor cells. • 1. Cell cultivation: U87MG cells and SK-BR-3 cells were cultured in EMEM medium containing 10% FBS (GE, article number SH30024.01) and McCoy's 5A medium containing 10% FBS (Gibco, article number 16600-108), respectively. • 2. […]

[3] abbreviates: 144 h, SK-BR-3, 6 days of cultivation, CTG reagent.

Read-outs that look alike come from different tables or passages of the source.

In patent US20260201062A1, “LIGAND-DRUG CONJUGATE OF EXATECAN ANALOGUE, PREPARATION METHOD THEREFOR AND APPLICATION THEREOF” (JIANGSU HENGRUI MEDICINE CO., LTD., priority 2018, published 2026) one finds IC50 and tumor inhibition rate data, which are given here for six compounds.

`CC[C@@]1(O)C(=O)OCc2c1cc1n(c2=O)Cc2c-1nc1cc(F)c(C)c3c1c2[C@@H](NC(=O)C1(O)CCCC1)CC3` [Compound 4, N-((1S,9S)-9-Ethyl-5-fluoro-9-hydroxy-4-methyl-10,13-dioxo-2,3,9,10,13,15-hexahydro-1H,12H-benzo[de]pyrano[3′,4′:6,7]indolizino[1,2-b]quinolin-1-yl)-1-hydroxycyclopentane-1-carboxamide]: in test [1] (SK-BR-3, 144 h), the IC50 was determined as 1.9 nM. Take T-DM1: in test [2], the tumor inhibition rate result is listed as “no inhibition effect on tumor”. Consider `CC[C@@]1(O)C(=O)OCc2c1cc1n(c2=O)Cc2c-1nc1cc(F)c(C)c3c1c2[C@@H](NC(=O)C1(O)CC1)CC3` [Compound 1, N-((1S,9S)-9-Ethyl-5-fluoro-9-hydroxy-4-methyl-10,13-dioxo-2,3,9,10,13,15-hexahydro-1H,12H-benzo[de]pyrano[3′,4′:6,7]indolizino[1,2-b]quinolin-1-yl)-1-hydroxycyclopropane-1-carboxamide], for which the IC50 in test [1] (SK-BR-3, 144 h) was determined as 0.12 nM; with U87MG cells it was 0.23 nM. As to `CC[C@@]1(O)C(=O)OCc2c1cc1n(c2=O)Cc2c-1nc1cc(F)c(C)c3c1c2[C@@H](NC(=O)C1(CO)CCC1)CC3` [Compound 6, N-((1S,9S)-9-Ethyl-5-fluoro-9-hydroxy-4-methyl-10,13-dioxo-2,3,9,10,13,15-hexahydro-1H,12H-benzo[de]pyrano[3′,4′:6,7]indolizino[1,2-b]quinolin-1-yl)-1-(hydroxymethyl) cyclobutane-1-carboxamide], the IC50 in test [1] (setting [3]) was found to be 1 nM. In the case of `CC[C@@]1(O)C(=O)OCc2c1cc1n(c2=O)Cc2c-1nc1cc(F)c(C)c3c1c2[C@@H](NC(=O)C1(O)CCC1)CC3` [Compound 7, N-((1S,9S)-9-Ethyl-5-fluoro-9-hydroxy-4-methyl-10,13-dioxo-2,3,9,10,13,15-hexahydro-1H,12H-benzo[de]pyrano[3′,4′:6,7]indolizino[1,2-b]quinolin-1-yl)-1-hydroxycyclobutane-1-carboxamide], in test [1] (setting [3]), the IC50 worked out at 1 nM. On to `CC[C@@]1(O)C(=O)OCc2c1cc1n(c2=O)Cc2c-1nc1cc(F)c(C)c3c1c2[C@@H](NC(=O)C1(CO)CC1)CC3` [Compound 5, N-((1S,9S)-9-Ethyl-5-fluoro-9-hydroxy-4-methyl-10,13-dioxo-2,3,9,10,13,15-hexahydro-1H,12H-benzo[de]pyrano[3′,4′:6,7]indolizino[1,2-b]quinolin-1-yl)-1-(hydroxymethyl) cyclopropane-1-carboxamide], for which the IC50 in the test on U87MG cells was 4.81 nM.
